Counter-ions that a name gives are not always drawn.
Legend:
Settings in all cases: 72 h
Calu-3 [1] = test: drug sensitivity score (DSS) for viability; higher = more toxic; extreme values may be limits of the assay
Caco-2 [2] = test: as above
HepG2 [3] = test: as above
Vero E6 [4] = test: as above
U2OS [5] = test: as above
Calu-3 [6] = test: relative viability EC50 (midpoint between 100% and the lowest measured viability); higher = less toxic
Caco-2 [7] = test: as above
HepG2 [8] = test: as above
Vero E6 [9] = test: as above
U2OS [10] = test: as above
Calu-3 [11] = test: cell viability relative to DMSO; higher = less toxic
Caco-2 [12] = test: as above
HepG2 [13] = test: as above
Vero E6 [14] = test: as above
U2OS [15] = test: as above

Compound	drug sensitivity score (Calu-3 [1])	drug sensitivity score (Caco-2 [2])	drug sensitivity score (HepG2 [3])	drug sensitivity score (Vero E6 [4])	drug sensitivity score (U2OS [5])	relative viability EC50 (Calu-3 [6]) [µM]	relative viability EC50 (Caco-2 [7]) [µM]	relative viability EC50 (HepG2 [8]) [µM]	relative viability EC50 (Vero E6 [9]) [µM]	relative viability EC50 (U2OS [10]) [µM]	cell viability (Calu-3 [11]; 1 nM) [%]	cell viability (Calu-3 [11]; 10 nM) [%]	cell viability (Calu-3 [11]; 100 nM) [%]	cell viability (Calu-3 [11]; 1000 nM) [%]	cell viability (Calu-3 [11]; 10000 nM) [%]	cell viability (Caco-2 [12]; 1 nM) [%]	cell viability (Caco-2 [12]; 10 nM) [%]	cell viability (Caco-2 [12]; 100 nM) [%]	cell viability (Caco-2 [12]; 1000 nM) [%]	cell viability (Caco-2 [12]; 10000 nM) [%]	cell viability (HepG2 [13]; 1 nM) [%]	cell viability (HepG2 [13]; 10 nM) [%]	cell viability (HepG2 [13]; 100 nM) [%]	cell viability (HepG2 [13]; 1000 nM) [%]	cell viability (HepG2 [13]; 10000 nM) [%]	cell viability (Vero E6 [14]; 1 nM) [%]	cell viability (Vero E6 [14]; 10 nM) [%]	cell viability (Vero E6 [14]; 100 nM) [%]	cell viability (Vero E6 [14]; 1000 nM) [%]	cell viability (Vero E6 [14]; 10000 nM) [%]	cell viability (U2OS [15]; 1 nM) [%]	cell viability (U2OS [15]; 10 nM) [%]	cell viability (U2OS [15]; 100 nM) [%]	cell viability (U2OS [15]; 1000 nM) [%]	cell viability (U2OS [15]; 10000 nM) [%]
CCCc1c2oc(C(=O)O)cc(=O)c2cc2c(=O)cc(C(=O)O)n(CC)c12 [nedocromil]	0	0	0	0	0	> 10	> 10	> 10	> 10	> 10	102	99.4	103	107	98.4	98.3	99.8	97.9	105	100	113	86.5	91.5	90.6	100	121	100	115	95.7	109	102	106	99.4	104	97.1
Cn1c(=O)c2c(ncn2CC(=O)Nc2ccc(-c3ccccc3)nn2)n(C)c1=O [ETC-159]	0	0.5	1.9	0	0	> 10	> 10	> 10	> 10	> 10	98.1	94	103	113	110	91.7	91.3	98.3	93.5	79.9	94	89.4	106	87.4	79.2	97.1	97.8	93.7	89.4	94.7	95.1	96.7	93.4	99.2	98.5
O=C(NC1CC1)c1cc(-c2cccs2)on1 [ISX-9]	0.3	0.1	0	0	0.1	> 10	> 10	> 10	> 10	> 10	93.6	105	104	99.7	84.3	98.1	98.3	93.3	101	87.6	104	95.8	102	103	87.6	111	96.5	108	99.4	101	97.7	98.4	98.4	102	85.5
Cc1[nH]c(=O)c(C#N)cc1-c1ccc2nccn2c1 [olprinone]	0	0	0	0	0	> 10	> 10	> 10	> 10	> 10	107	112	93.2	104	98.3	98.7	99.6	91.2	92	94.8	93.2	102	103	104	104	98.5	106	94.2	102	96.7	105	102	101	99.9	102
O=C(c1cncc(Br)c1)N1CCC(N2CCCC2)CC1 [UNC669]	0	0	0	0	0	> 10	> 10	> 10	> 10	> 10	99.3	110	93.7	98.4	98.3	99.1	105	90.5	111	92.7	98.3	102	103	93.4	101	101	102	95.7	100	97.8	97.1	106	95.1	102	93.6
C=C1/C(=C\C=C2/CCC[C@]3(C)[C@@H]([C@H](C)CCCC(O)(C(F)(F)F)C(F)(F)F)CC[C@@H]23)C[C@@H](O)C[C@@H]1O [falecalcitriol]	0	0	0	0	0	> 10	> 10	> 10	> 10	> 10	122	99.3	95.7	99.7	98.2	96.2	96.1	90.6	95.6	92.6	98.1	97	94.1	102	92.9	92.4	96.2	85.8	94.9	104	100	94.9	98.5	92.7	93.1
CC(C)[C@H](N)C(=O)OCCOCn1cnc2c(=O)nc(N)[nH]c21 [valaciclovir]	0	0	0	0	0	> 10	> 10	> 10	> 10	> 10	103	98.8	88.4	111	90.3	103	96	104	99.4	104	103	92.5	104	99.5	101	90.1	92	86.5	86.1	105	94	101	96	105	110
N[C@H](C(=O)O)c1cc(O)no1 [ibotenic-acid]	0	0	0	0	0	> 10	> 10	> 10	> 10	> 10	93	93.7	105	93.6	94	92.9	94.2	93.6	97.2	96.5	91.3	104	95.1	93.3	93.9	102	101	99.1	99.4	100	97.8	97.5	96.6	102	92.4
Oc1c(Cl)cc(Cl)c2cccnc12 [chloroxine]	0.3	0.5	0	0	0	> 10	> 10	> 10	> 10	> 10	93.9	103	91.9	100	84.2	98.9	102	96.6	91.4	85.3	75.3	89.9	92.2	91.6	76	100	105	96.9	93.5	96.7	102	103	96.7	101	94.4
O=C1CC[C@@]2(O)[C@H]3Cc4ccc(O)c5c4[C@@]2(CCN3CC2CC2)[C@H]1O5 [NALTREXONE HYDROCHLORIDE]	0	0	0	0	0	> 10	> 10	> 10	> 10	> 10	97.3	100	101	99.2	99	107	99	95.3	99.1	90	93.8	110	102	95.1	92.1	98.1	106	100	103	103	102	97.2	99.8	100	101
CCCCNc1nc(N)c2[nH]c(=O)n(Cc3ccc(OCCN(C)C)nc3)c2n1 [DSR-6434]	0	0	0	0	0	> 10	> 10	> 10	> 10	> 10	90.4	104	95.2	89.6	101	93.3	98.6	92.7	100	95.9	103	102	91	94.4	97.1	97.6	99.1	98.8	93.6	96.3	96.9	97.9	99	101	97
CC1Cc2ccccc2N1NC(=O)c1ccc(Cl)c(S(N)(=O)=O)c1 (stereo not given) [indapamide]	0	0	0	0	0	> 10	> 10	> 10	> 10	> 10	105	110	105	96.7	96	94.8	96	94.3	94.8	93.3	95.5	95.7	94.2	99.5	97.1	100	100	103	97.4	92.9	101	96.9	97.9	96.7	98.3
